Measurements: patent US20230002327A1, “SMALL-MOLECULE REGULATOR OF TLR8” (TSINGHUA UNIVERSITY, priority 2019, published 2023)

Experiments:
[1] = system: R848-induced signaling pathway in THP-1 cells; test: ELISA of inflammatory factors in R848-treated THP-1 cells; assay type: cell-based, human
Method: THP-1 cells treated with 50 ng/mL of PMA were suspended in RPMI medium (containing 10% fetal bovine serum, penicillin (100 U/mL), streptomycin ([…]) and 0.05 mM 2-mercaptoethanol), seeded in a 12-well plate at a density of 1×10^6 cells/well and 1 mL/well, and incubated in a cell incubator (37° C., 5% CO2).
(§1) After 48 hours, suspending cells would adhere onto the surface of the 12-well plate, non-adhered cells and the medium were aspirated, and cells were washed with sterile […] buffer (3×1 mL). RPMI medium was added (1 mL/well), and R848 (1 μg/mL) and various concentrations of Compound 24 or Compound 10 (as a negative control) were further added to treat cells. Or, the same amount of peripheral blood mononuclear cells derived from healthy human were used instead of THP-1 cells for subsequent experiments.
(§2) After 24 hours, the supernatant of the medium was collected and stored in a freezer at −80° C. Cells were washed with PBS (3×1 mL), the 12-well plate was placed on ice, and then 400 μL of lysis buffer (containing protease inhibitor) was added to each well, during which the cells were pipetted every five minutes. After 20 minutes, the mixture was transferred to the corresponding 1.5-mL tube and centrifuged at 13.2K rpm and 4° C. for 20 minutes. 350 μL of the supernatant was collected into a new centrifuge tube and frozen at −80° C.
(§3) Cytokines interleukin-1β(IL-1β), interleukin-6 (IL-6) and tumor necrosis factor (TNF-α) were quantified by enzyme-linked immunosorbent assay (ELISA) according to the instructions of the kit provided by the manufacturer.

[2] = system: R848-induced signaling pathway in human peripheral blood mononuclear cells; test: ELISA of TNF-α in R848-treated human peripheral blood mononuclear cells; assay type: cell-based; settings: human peripheral blood mononuclear cells (FIG. 8)
Method: as §1, §2, §3

[3] = system: TLR1/2, TLR2/6, TLR3, TLR4 and TLR5 signaling pathways; test: ELISA of TNF-α in TLR1/2, TLR2/6, TLR3, TLR4 or TLR5 signaling pathways in human PBMC; assay type: cell-based; settings: human peripheral blood mononuclear cells (FIG. 4)
[4] = system: peripheral blood mononuclear cells of patients suffering from rheumatoid arthritis; test: TNF-α in PBMC of rheumatoid arthritis patients; assay type: cell-based, human; settings: PBMC derived from rheumatoid arthritis patients (FIG. 9)
Method: Approximately 8 mL of blood was collected from untreated rheumatoid arthritis patients.
Peripheral blood mononuclear cells (PBMCs) were isolated from the whole blood derived from 6 rheumatoid arthritis patients using the lymphocyte separation medium, and the cells were seeded in a 96-well round-bottom plate at a density of 1×10^6 cells/mL immediately after the isolation (cultured in RPMI 1640 (0.25 mL/well)).
Afterwards, cells were treated with 0, 10, 20, 40 and 80 μM Compound 24, Compound 10 was used as a negative control, and cells were placed in a cell incubator (37° C., 5% CO2) for incubation.
After 24 hours, the resultant was centrifuged at 4,000 rpm/minute for 10 minutes, and then the supernatant was collected, frozen to −80° C. and used for the determination of TNF-α. Quantification was conducted using a human TNF ELISA Kit.

[5] = system: hTLR1/2, TLR2/6, TLR3, TLR4, TLR5, TLR7, TLR9; test: Specificity test in HEK-Blue TLR cell lines: other TLRs; assay type: cell-based, human; settings: at a concentration of 100 μM (FIG. 11)
Method: The selectivity of compounds for receptors in TLR family was tested in HEK-Blue cells overexpressing various TLRX (x=1 to 9) respectively. The steps of this test method were the same as those mentioned above in “Activity Test of Compounds”, except that the ligands corresponding to different TLRs were used to activate the downstream signaling in the corresponding cells. Among these, ploy (I:C) (20 μg/mL), LPS (40 ng/mL), Pam3CSK4 (100 ng/mL), Pam2CSK4 (100 ng/mL), flagellin (200 ng/mL), R848 (1 μg/mL) and ODN2006 (0.5 μM) were used to selectively activate HEK-Blue hTLR3-, hTLR4-, hTLR1/2-, hTLR2/6-, hTLR5-, hTLR7- and hTLR9-overexpressing cells, respectively.

SMILES | inhibitory effect on inflammatory factor TNF-α ([1]; concentration-dependent (FIG. 5)) | inhibitory effect on inflammatory factor IL-6 ([1]; concentration-dependent (FIG. 6)) | inhibitory effect on inflammatory factor IL-1β ([1]; concentration-dependent (FIG. 7)) | inhibitory effect on inflammatory factor TNF-α [2] | inhibitory effect on TNF-α in TLR1/2, TLR2/6, TLR3, TLR4 and TLR5 signaling pathways [3] | inhibitory effect on inflammatory factor TNF-α [4] | influence on other TLR signaling pathways [5]
CSc1nnc(CCCO)n1-c1cc(C)c(C)c(C)c1 [Compound 24, 3-(5-(methylthio)-4-(3,4,5-trimethylphenyl)-4H-1,2,4-triazole-3-yl)propan-1-ol] | significant inhibitory effect | significant inhibitory effect | significant inhibitory effect | significant inhibitory effect | no inhibitory effect | significant inhibitory effect | –
CCOCc1nc(I)c(-c2ccccc2)n1CC(C)(C)O [Compound 53, 1-[2-(ethoxymethyl)-4-iodo-5-phenyl-1H-imidazole-1-yl]-2-methylpropan-2-ol] | – | – | – | – | – | – | no influence
